Measurements published in US20090076130A1, “COMPOUNDS FOR THE INHIBITION OF HISTONE DEACETYLASE” (NATUREWISE BIOTECH & MEDICALS CORPORATION, priority 2007, published 2009).

How the values were obtained:
[1] = tested on: human breast MCF-7 cancer cells; assay: Growth and morphology of breast cancer MCF-7 cells; format: cell-based
Method: The breast cancer MCF-7 cells, were cultured in Dulbecco's modified Eagle's medium (DMEM; Gibco) supplemented with penicillin G, streptomycin sulphate, 0.5 mM of L-glutamine and 10% fetal bovine serum (FBS; Gibco) at 37° C., 5% CO2 and 95% relative humidity. The cells were seeded at a density of 3×10^5 per well of 6-well plates. After 24 hours, the cells were treated with different concentrations of compound NBM-HD-1 and 4 mM sodium butyrate being used as the positive control. The cells were observed after 48 hours and counted after 96 hours. […] In FIG. 8(A), after the cells were incubated with 2.5 μg/mL (FIG. 8(A)-b), 5 μg/mL (FIG. 8(A)-c) and 10 μg/mL (FIG. 8(A)-d) of NBM-HD-1 for 48 hours, the density of MCF-7 cells reduced dramatically in comparison with that of the control group (FIG. 8(A)-a). The morphology of the MCF-7 cells in the experimental group changed in comparison with that in the control group. […] The results of the cell counting (FIG. 8(B)) indicate that, similar to sodium butyrate, NBM-HD-1 inhibits cell growth.
MCF-7 cancer cells were seeded at a density of 3×10^5 per well in 6-well plates. After 24 hours, the cells were treated with different concentrations of compound NBM-HD-2 and 4 mM sodium butyrate being used as the positive control. The cells were observed and counted after 72 hours. […] In FIG. 13(A), after the cells were incubated with 2.5 μg/mL (FIG. 13(A)-c), 5 μg/mL (FIG. 13(A)-d), 7.5 μg/mL (FIG. 13(A)-e) and 10 μg/mL (FIG. 13(A)-f) of NBM-HD-2 for 72 hours, the density of MCF-7 cells reduced dramatically in comparison with that of the control group (FIG. 13(A)-a). The morphology of the MCF-7 cells in the experimental group changed in comparison with that in the control group.
MCF-7 cancer cells were seeded at a density of 3×10^5 per well of 6-well plates. After 24 hours, the cells were treated with different concentrations of compound NBM-HD-3 and 4 mM sodium butyrate, which was being used as the positive control. The cells were observed and counted after 72 hours. […] In FIG. 14(A), after the cells were incubated with 2.5 μg/mL (FIG. 14(A)-c), 5 μg/mL (FIG. 14(A)-d), 7.5 μg/mL (FIG. 14(A)-e) and 10 μg/mL (FIG. 14(A)-f) of NBM-HD-3 for 72 hours, the density of MCF-7 cells reduced dramatically in comparison with that of the control group (FIG. 14(A)-a). The morphology of the MCF-7 cells in the experimental group changed in comparison with that in the control group. […] The results of the cell counting (FIG. 14(B)) indicate that, similar to sodium butyrate, NBM-HD-3 inhibits cell growth.

[2] = tested on: MCF-7 cancer cells; assay: Cell cycle / DNA of MCF-7 cells by FACScan cytometry; format: cell-based, human; conditions: 72 hours
Method: 1×10^6 of rat C6 glioma cells were treated with various concentrations of NBM-HD-1 (0 μg/mL, 2.5 μg/mL, 5 μg/mL, and 10 μg/mL) for 72 hours. The treated cells were trysinized and collected. The cells were resuspended in 200 μL PBS and then fixed by adding 800 μL of cold 100% ethanol. The resulting cells were fixed overnight at −20°. The cell pellets were collected by centrifugation, resuspended in 1 mL of hypotonic buffer (0.5% Triton X-100 in PBS and 1 μg/mL RNase A), and incubated at 37° for 30 minutes. Then, 1 mL of PI solution (50 μg/mL) was added to the resulting cell pellets. The mixture was allowed to stand at 4° for 30 min. The DNA amounts of the cells were analyzed by FACScan Cytometry (Becton Dickinson) (see FIG. 2).
MCF-7 cancer cells (1×10^6) in a 100-mm dish were treated with various concentrations of NBM-HD-1 (0, 2.5, 5, and 10 μg/mL) or 4 mM sodium butyrate for 72 hours. The samples were prepared following the steps mentioned in [0063]. The DNA of the cells was then analyzed by FACScan cytometry (Becton Dickinson). […] The percentage of G0/G1 phase increased from 74.46 to 92.55 in a dose-dependent manner.

[3] = tested on: cortical neurons; assay: Neurite outgrowth of cortical neurons from fetal rat neural stem cells; format: cell-based, Wistar rat; conditions: 0.63 μg/mL, 6 days, vs DMSO control
Method: The growth medium for the NSCs (neural stem cells) and cortical neurons was prepared by adding penicillin G, streptomycin and 0.5 mM of L-glutamine into a B-27 supplemented neurobasal medium (Gibco). The unborn fetus was taken out of the fetal sac in the abdominal cavity of a 17-day pregnant Wistar rat under anesthesia. The cerebral tissue was removed from the fetus and treated with 0.1% trypsin solution at 25° C. for three minutes. After washing with PBS solution 3 times, the cells were dissociated by up and down mixing. The resulting solution was passed through a 70 μm Nylon cell strainer (Falcon) in order to obtain the filtrate that contained cerebral cells. The filtrate was centrifuged at 1000 rpm for 10 minutes and the supernatant was aspirated. The resulting pellet was resuspended in the growth medium prepared as stated above. The resulting suspension contained NSCs.
The cells obtained from the suspension were cultivated in 6-well plates coated with 30 μg/ml of poly-D-lysine (Sigma) at the density of 75 cells/mm^2. The cells were cultured at 37° C., 5% CO2 and 95% relative humidity. The growth media contained 0.63 μg/mL of NBM-HD-1 and the growth media with 1 μl of DMSO was used as the control. […]
After cultivation for 6 days, live cells were observed by microscope. The lengths of the neurites of the neurons in 6 different fields were measured and averaged. […]

Structure (SMILES): COc1cc2c(c(OC)c1CCC(C)(C)O)C(=O)C[C@@H](c1ccc(OC)c(OC)c1C/C=C(\C)CCCC(C)(C)O)O2 [NBM-HD-1]
- morphology of MCF-7 cancer cells ([1]; 2.5, 5, 10 μg/mL, 48 hours): change their morphology
- growth of MCF-7 cancer cells ([1]; NBM-HD-1 2.5, 5, 10 μg/mL or 4 mM sodium butyrate, observed after 48 hours, counted after 96 hours): can inhibit the growth of MCF-7 cancer cells in a dose-dependent manner
- cell cycle of MCF-7 cells ([2]; 0, 2.5, 5, 10 μg/mL): arrested on the G0/G1 phase in a dose-dependent manner
- S and G2/M phases of the cells ([2]; MCF-7, 0, 2.5, 5, 10 μg/mL): significantly decreased both S and G2/M phases of the cells in a dose-dependent manner
- neurite outgrowth (length of the neurites) [3]: could promote the neurite outgrowth
